Measurements taken from ChEMBL document CHEMBL1130556, “Synthesis and activity of brefeldin a analogs as inducers of cancer cell differentiation and apoptosis” (Bioorg Med Chem Lett, 1997).

Legend:
Type in all cases: functional, cell-based
Details in all cases: Homo sapiens
[1] = test system: HCT-116; assay: Effect on apoptotic DNA fragmentation to differentitiate HCT 116 cells, at a concentration of 3.6 uM, 1.0 ug/ml was determined; - = Non potent
[2] = test system: HCT-116; assay: Effect on apoptotic DNA fragmentation to differentitiate HCT 116 cells, at a concentration of 3.5 uM, 1.0 ug/ml was determined; - = Not potent
[3] = test system: HCT-116; assay: Effect on apoptotic DNA fragmentation to differentitiate HCT 116 cells, at a concentration of 5.2 uM, 2.0 ug/ml was determined; - = Not potent
[4] = test system: HCT-116; assay: Effect on apoptotic DNA fragmentation to differentitiate HCT 116 cells, at a concentration of 3.2 uM, 1.0 ug/ml was determined; - = Not potent
[5] = test system: HCT-116; assay: Effect on apoptotic DNA fragmentation to differentitiate HCT 116 cells, at a concentration of 0.85 uM, 0.25 ug/ml was determined; - = Not potent
[6] = test system: HCT-116; assay: Effect on apoptotic DNA fragmentation to differentitiate HCT 116 cells, at a concentration of 1.6 uM, 0.5 ug/ml was determined; + = Potent
[7] = test system: HCT-116; assay: Effect on apoptotic DNA fragmentation to differentitiate HCT 116 cells, at a concentration of 0.16 uM, […] was determined; + = Potent
[8] = test system: HCT-116; assay: Effect on apoptotic DNA fragmentation to differentitiate HCT 116 cells, at a concentration of 6.4 uM, 2.0 ug/ml was determined; - = Not potent
[9] = test system: HCT-116; assay: Effect on apoptotic DNA fragmentation to differentitiate HCT 116 cells, at a concentration of 0.11 uM, 0.03 ug/ml was determined; + = Potent
[10] = test system: HCT-116; assay: Effect on apoptotic DNA fragmentation to differentitiate HCT 116 cells, at a concentration of 0.27 uM, 0.1 ug/ml was determined; + = Potent
[11] = test system: HCT-116; assay: Effect on apoptotic DNA fragmentation to differentitiate HCT 116 cells, at a concentration of 4.1 uM, 1.2 ug/ml was determined; + = Potent
[12] = test system: HCT-116; assay: Effect on apoptotic DNA fragmentation to differentitiate HCT 116 cells, at a concentration of 3.4 uM, 1.0 ug/ml was determined; - = Not potent

## C[C@H]1CCC/C=C\[C@@H]2CC(=O)C[C@H]2[C@H](O)/C=C/C(=O)O1
[1]
  DNA fragmentation: Non potent

## C[C@H]1CCCCC[C@@H]2C[C@H](O)C[C@H]2[C@H](O)CCC(=O)O1
[2]
  DNA fragmentation: Not potent

## C[C@@H](O)CCC/C=C\[C@@H]1C[C@H](O)C[C@H]1[C@H](O)/C=C/C(=O)OCc1ccccc1
[3]
  DNA fragmentation: Not potent

## CO[C@@H]1C[C@@H]2[C@H](/C=C\CCC[C@H](C)OC(=O)/C=C/[C@H]2OC)C1
[4]
  DNA fragmentation: Not potent

## CO[C@@H]1/C=C/C(=O)O[C@@H](C)CCC/C=C\[C@@H]2C[C@H](O)C[C@H]21
[5]
  DNA fragmentation: Not potent

## CC(=O)O[C@@H]1/C=C/C(=O)O[C@@H](C)CCC/C=C\[C@@H]2C[C@H](O)C[C@H]21
[6]
  DNA fragmentation: Potent

## CC(=O)O[C@@H]1C[C@H]2[C@H](O)/C=C/C(=O)O[C@@H](C)CCC/C=C\[C@@H]2C1
[7]
  DNA fragmentation: Potent

## C[C@H]1CCC/C=C\[C@@H]2CC(=O)C[C@H]2C(=O)CCC(=O)O1
[1]
  DNA fragmentation: Non potent

## COC(=O)/C=C/[C@@H](O)[C@@H]1C[C@@H](O)C[C@H]1/C=C\CCC[C@@H](C)O
[8]
  DNA fragmentation: Not potent

## C[C@H]1CCC/C=C\[C@@H]2C[C@H](O)C[C@H]2[C@H](O)/C=C/C(=O)O1
[9]
  DNA fragmentation: Potent

## CC(=O)O[C@@H]1C[C@@H]2[C@H](/C=C\CCC[C@H](C)OC(=O)/C=C/[C@H]2OC(C)=O)C1
[10]
  DNA fragmentation: Potent

## C[C@H]1CCC[C@@H]2O[C@@H]2[C@@H]2C[C@H](O)C[C@H]2[C@H](O)/C=C/C(=O)O1
[11]
  DNA fragmentation: Potent

## C[C@@H](O)CCC/C=C\[C@@H]1C[C@H](O)C[C@H]1[C@H](O)/C=C/C(=O)O
[12]
  DNA fragmentation: Not potent
